Measured values published in US20240425478A1, “CYCLOPENTYLPYRAZOLE CDK2 INHIBITORS” (Genentech, Inc., priority 2021, published 2024).
Read-outs that look alike come from different tables or passages of the source.

How the values were obtained:
[1] = biological target: T1, Cyclin Dependent Kinase 2/Cyclin E1 (CDK2-cycE1) (Homo sapiens, UniProt P24941); experiment: CDK2-cycE1 TR-FRET (LANCE) enzyme assay; type: biochemical; conditions: for FS CDK1/CDK2 / FS CDK4/CDK2: fold selectivity; for FS CDK1/CDK2: enzymatic CDK1 Ki over CDK2 Ki; for FS CDK4/CDK2: enzymatic CDK4 Ki over CDK2 Ki
T1 construct: purchased ProQinase 0050-0055-1
How it was run: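 Compound dose responses pre-incubated 30 min with CDK2-cycE1 in 50 mM HEPES pH 7.5, 10 mM MgCl2, 2 mM TCEP, 0.05% BGG, 0.01% Brij 35. Reaction quenched with EDTA (15 mM final), phospho-MBP detected by Eu-anti-phospho-MBP TR-FRET (acceptor/donor ratio). Inhibition constants from Morrison equation.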

[2] = biological target: T2, Cyclin Dependent Kinase 4/Cyclin D3 (CDK4-cycD3) (Homo sapiens, UniProt P11802); experiment: CDK4-cycD3 TR-FRET (LANCE) enzyme assay; type: biochemical; conditions: for Ki: Table O, enzymatic assay; for FS CDK4/CDK2: fold selectivity, enzymatic Ki ratio
T2 construct: purchased Carna Biosciences 04-105
How it was run: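 Compound dose responses pre-incubated 30 min with enzyme mix in 50 mM HEPES pH 7.5, 10 mM MgCl2, 2 mM TCEP, 0.05% BGG, 0.01% Brij 35. Reaction quenched with EDTA (15 mM final); Eu-anti-phospho-4E-BP1 TR-FRET detection, acceptor/donor ratio. Ki derived by Morrison equation.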

[3] = biological target: T3, Cyclin Dependent Kinase 1/Cyclin A2 (CDK1-cycA2) (Homo sapiens, UniProt P06493); experiment: CDK1-cycA2 TR-FRET (Lance) enzyme assay; type: biochemical; conditions: for Ki: Table O, enzymatic assay; for FS CDK1/CDK2: fold selectivity, enzymatic Ki ratio
T3 construct: purchased ProQinase 0134-0054-1
How it was run: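 Human CDK1/cyclin A2 pre-incubated 30 min with compound dose responses in 50 mM HEPES pH 7.5, 10 mM MgCl2, 2 mM TCEP, 0.05% BGG, 0.01% Brij 35. Reaction quenched with EDTA (15 mM final); TR-FRET readout using Eu-anti-phospho-4E-BP1, acceptor/donor ratio. Inhibition constants from Morrison equation.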

SKOV-3 (ATCC HTB-77) = experiment: SKOV-3 EdU incorporation cell proliferation assay (CDK4/6-dependent); type: cell-based; conditions: for IC50: Homo sapiens, SK-OV-3, Table O, cellular assay, read-out: CDK4/6 SKOV-3 IC50; for FS SKOV-3/OVISE: fold selectivity, cellular IC50 ratio
How it was run: (§1)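 Cells in RPMI/10% FBS dosed with compound (0.5% DMSO final) for 16 h at 37 °C, 5% CO2, then EdU 0.5 μM final for 8 h before fixation and imaging. IC50 from 4-parameter logistic fit of EdU-positive cell fraction versus dose.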

[4] = system: OVISE (JCRB1043, CCNE1-amplified); experiment: OVISE EdU incorporation cell proliferation assay (CDK2-dependent); type: cell-based; conditions: for IC50 / FS SKOV-3/OVISE / FS p-H3/OVISE: Table O; for IC50: cellular assay, read-out: CDK2 OVISE IC50; for FS SKOV-3/OVISE / FS p-H3/OVISE: fold selectivity; for FS SKOV-3/OVISE: cellular SKOV-3 IC50 over OVISE IC50; for FS p-H3/OVISE: cellular p-H3 IC50 over OVISE IC50
How it was run: as §1

HCT116 cells = experiment: p-H3 HCT-116 mitotic release cell proliferation assay (cellular CDK1); type: cell-based; conditions: Homo sapiens, HCT-116; Table O, cellular assay; read-out: CDK1 p-H3 IC50
How it was run: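 HCT116 cells arrested 16 h with 500 nM nocodazole, then exposed to compound for 4 h at 37 °C (0.1% DMSO). Lysates read by HTRF/FRET with donor and acceptor phospho-Histone H3 (Ser10) antibodies, ≥2 h at room temperature; CDK1 inhibition seen as loss of p-H3 on mitotic release.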

[5] = Table O, enzymatic assay, read-out: CDK2 Ki

T3 sequence (P06493 whole entry): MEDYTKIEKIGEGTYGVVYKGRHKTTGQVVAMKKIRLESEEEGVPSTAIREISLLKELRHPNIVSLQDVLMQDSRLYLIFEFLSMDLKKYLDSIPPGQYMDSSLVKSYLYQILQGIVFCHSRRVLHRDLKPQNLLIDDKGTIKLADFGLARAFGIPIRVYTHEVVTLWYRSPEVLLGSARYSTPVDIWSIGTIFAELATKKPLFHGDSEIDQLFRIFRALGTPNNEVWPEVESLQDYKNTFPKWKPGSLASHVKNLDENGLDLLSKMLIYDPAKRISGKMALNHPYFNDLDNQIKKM
T3 sequence (P20248 whole entry partner): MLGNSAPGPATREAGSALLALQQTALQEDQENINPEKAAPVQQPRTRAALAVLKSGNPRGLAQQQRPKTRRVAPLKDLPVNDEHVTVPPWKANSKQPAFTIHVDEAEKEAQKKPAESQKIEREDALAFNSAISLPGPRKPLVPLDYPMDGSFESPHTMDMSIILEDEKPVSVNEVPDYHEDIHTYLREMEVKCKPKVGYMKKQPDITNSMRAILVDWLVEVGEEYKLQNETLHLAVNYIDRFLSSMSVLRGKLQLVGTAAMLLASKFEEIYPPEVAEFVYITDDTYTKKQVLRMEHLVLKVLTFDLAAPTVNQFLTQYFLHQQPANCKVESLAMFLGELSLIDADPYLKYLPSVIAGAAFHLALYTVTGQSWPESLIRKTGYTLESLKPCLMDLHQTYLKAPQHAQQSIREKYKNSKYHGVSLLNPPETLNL
T2 sequence (P11802 whole entry): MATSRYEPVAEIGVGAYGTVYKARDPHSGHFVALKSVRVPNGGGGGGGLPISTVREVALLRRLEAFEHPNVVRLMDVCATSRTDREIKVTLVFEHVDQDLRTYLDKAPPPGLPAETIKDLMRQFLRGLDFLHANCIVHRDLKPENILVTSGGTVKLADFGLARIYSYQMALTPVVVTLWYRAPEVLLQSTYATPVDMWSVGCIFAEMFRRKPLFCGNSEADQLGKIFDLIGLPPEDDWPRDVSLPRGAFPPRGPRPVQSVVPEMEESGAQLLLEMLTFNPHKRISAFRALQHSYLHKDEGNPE
T2 sequence (P30281 whole entry partner): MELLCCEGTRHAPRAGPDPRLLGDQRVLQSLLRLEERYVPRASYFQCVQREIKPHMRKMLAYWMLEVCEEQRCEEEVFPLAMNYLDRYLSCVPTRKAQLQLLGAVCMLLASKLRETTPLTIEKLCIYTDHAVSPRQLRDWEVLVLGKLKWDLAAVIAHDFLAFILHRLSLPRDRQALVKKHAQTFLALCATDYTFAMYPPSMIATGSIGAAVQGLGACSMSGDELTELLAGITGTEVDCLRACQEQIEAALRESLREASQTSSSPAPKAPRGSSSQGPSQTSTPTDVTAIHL

Ki [1, 5] | FS CDK1/CDK2 ([1]; Table O) | FS CDK4/CDK2 ([1]; Table O) | Ki [2] | Ki [3] | IC50 (SKOV-3 (ATCC HTB-77)) | IC50 (HCT116 cells) | Compound | IC50 [4] | FS SKOV-3/OVISE [4] | FS p-H3/OVISE [4] | further results
0.21 nM | 17 | 290 | 61 nM | 3.6 nM | 4300 nM | 72 nM | CC(CC(F)(F)F)NC(=O)O[C@@H]1CC[C@H](c2cc(Nc3ccc(=O)n(C)n3)n[nH]2)C1 (stereo partly drawn) [Example 6D, (1R,3S)-3-(3-((1-methyl-6-oxo-1,6-dihydropyridazin-3-yl)amino)-1H-pyrazol-5-yl)cyclopentyl (4,4,4-trifluorobutan-2-yl)carbamate] | 77 nM | 56 | 0.94 | –
2.9 nM | 17 | 6.2 | 18 nM | 48 nM | 15000 nM | 290 nM | C[C@H](NC(=O)O[C@@H]1CC[C@H](c2cc(Nc3ccc(=O)n(C)n3)n[nH]2)C1)c1ccccc1 [Example 6E, (1R,3S)-3-(3-((1-methyl-6-oxo-1,6-dihydropyridazin-3-yl)amino)-1H-pyrazol-5-yl)cyclopentyl ((S)-1-phenylethyl)carbamate] | 320 nM | 47 | 0.91 | –
0.36 nM | 64 | 110 | 38 nM | 23 nM | 3800 nM | 50 nM | Cc1nc(C(=O)N(C)C)ccc1Nc1cc([C@H]2CC[C@@H](OC(=O)NC3(C)CC3)C2)[nH]n1 [Example 7, (1R,3S)-3-(3-((6-(dimethylcarbamoyl)-2-methylpyridin-3-yl)amino)-1H-pyrazol-5-yl)cyclopentyl (1-methylcyclopropyl)carbamate] | 58 nM | 66 | 0.86 | Ki ([1]; read-out: CDK2 activity / potency (enzymatic assay)): ≤ 1 nM
0.66 nM | 79 | 212 | 140 nM | 52 nM | 3000 nM | 140 nM | Cc1nccnc1Nc1cc([C@H]2CC[C@@H](OC(=O)NC3(C)COC3)C2)[nH]n1 [Example 8B, (1R,3S)-3-(3-((3-methylpyrazin-2-yl)amino)-1H-pyrazol-5-yl)cyclopentyl (3-methyloxetan-3-yl)carbamate] | 87 nM | 34 | 1.6 | –
3.1 nM | 52 | 213 | 660 nM | 160 nM | 15000 nM | 560 nM | Cc1ncccc1Nc1cc([C@H]2CC[C@@H](OC(=O)NC3(C)COC3)C2)[nH]n1 [Example 8] | 320 nM | 47 | 1.8 | –
1.9 nM | 32 | 79 | 150 nM | 61 nM | 3300 nM | 210 nM | Cc1cc(Nc2cc([C@H]3CC[C@@H](OC(=O)NC45CC(C4)C5)C3)[nH]n2)ccn1 [Example 9, (1R,3S)-3-(3-((2-methylpyridin-4-yl)amino)-1H-pyrazol-5-yl)cyclopentyl bicyclo[1.1.1]pentan-1-ylcarbamate] | 170 nM | 19 | 1.2 | –
0.35 nM | 34 | 60 | 21 nM | 12 nM | 470 nM | 46 nM | Cn1cnc(Nc2cc([C@H]3CC[C@@H](OC(=O)NC45CC(C4)C5)C3)[nH]n2)cc1=O [Example 9B, (1R,3S)-3-(3-((1-methyl-6-oxo-1,6-dihydropyrimidin-4-yl)amino)-1H-pyrazol-5-yl)cyclopentyl bicyclo[1.1.1]pentan-1-ylcarbamate] | 33 nM | 14 | 1.4 | –
2 nM | 95 | 200 | 400 nM | 190 nM | 9100 nM | 180 nM | CNC(=O)c1cc(C)c(Nc2cc([C@H]3CC[C@@H](OC(=O)NC45CC(C4)C5)C3)[nH]n2)cn1 [Example 9C, (1R,3S)-3-(3-((4-methyl-6-(methylcarbamoyl)pyridin-3-yl)amino)-1H-pyrazol-5-yl)cyclopentyl bicyclo[1.1.1]pentan-1-ylcarbamate] | 180 nM | 51 | 1.0 | –
2.1 nM | 33 | 90 | 190 nM | 69 nM | 1000 nM | 220 nM | CNC(=O)c1cnc(Nc2cc([C@H]3CC[C@@H](OC(=O)NC45CC(C4)C5)C3)[nH]n2)c(C)n1 [Example 9E, (1R,3S)-3-(3-((3-methyl-5-(methylcarbamoyl)pyrazin-2-yl)amino)-1H-pyrazol-5-yl)cyclopentyl bicyclo[1.1.1]pentan-1-ylcarbamate] | 200 nM | 5 | 1.0 | –
4.7 nM | 6.4 | 2 | 9.5 nM | 30 nM | 150 nM | 39 nM | CN1CCN(c2ccc(Nc3cc([C@H]4CC[C@@H](OC(=O)NC56CC(C5)C6)C4)[nH]n3)cn2)CC1 [Example 9H, (1R,3S)-3-(3-((6-(4-methylpiperazin-1-yl)pyridin-3-yl)amino)-1H-pyrazol-5-yl)cyclopentyl bicyclo[1.1.1]pentan-1-ylcarbamate] | 150 nM | 1 | 0.26 | –
0.38 nM | 23 | 97 | 37 nM | 8.9 nM | 360 nM | 6.9 nM | O=C(NC12CC(C1)C2)O[C@@H]1CC[C@H](c2cc(Nc3ccc(CO)nc3)n[nH]2)C1 [Example 9I, (1R,3S)-3-(3-((6-(hydroxymethyl)pyridin-3-yl)amino)-1H-pyrazol-5-yl)cyclopentyl bicyclo[1.1.1]pentan-1-ylcarbamate] | 30 nM | 12 | 0.23 | –

Compound | Ki [1, 5] | FS CDK1/CDK2 ([1]; Table O) | FS CDK4/CDK2 ([1]; Table O) | Ki [2] | Ki [3] | IC50 (SKOV-3 (ATCC HTB-77)) | IC50 (HCT116 cells) | IC50 [4] | FS SKOV-3/OVISE [4] | FS p-H3/OVISE [4] | further results
Cn1nc(Nc2cc([C@H]3CC[C@@H](OC(=O)NC(C)(C)C)C3)[nH]n2)ccc1=O [Example 6C, (1R,3S)-3-(3-((1-methyl-6-oxo-1,6-dihydropyridazin-3-yl)amino)-1H-pyrazol-5-yl)cyclopentyl tert-butylcarbamate] | < 0.1 nM | >47 | >584 | 45 nM | 3.6 nM | 1500 nM | 26 nM | 30 nM | 50 | 0.087 | Ki ([1]; Table R, enzymatic assay, read-out: CDK2 Ki): < 0.1 nM; CDK2 Ki fold change in potency versus Comparator D ([1]; Table R, in brackets after CDK2 Ki): 27 fold; Ki ([1]; Table S, enzymatic assay, read-out: CDK2 Ki): < 0.1 nM; CDK2 Ki fold change in potency versus Comparator E ([1]; Table S, in brackets after CDK2 Ki): 5.2 fold; FS CDK4/CDK2 increased over Comparator D, (+) sign ([2]; Table R): (+); FS CDK4/CDK2 ([2]; Table R): > 584; FS CDK4/CDK2 increased over Comparator E, (+) sign ([2]; Table S): (+); FS CDK4/CDK2 ([2]; Table S): > 584; FS CDK1/CDK2 increased over Comparator D, (+) sign ([3]; Table R): (+); FS CDK1/CDK2 ([3]; Table R): > 47; FS CDK1/CDK2 increased over Comparator E, (+) sign ([3]; Table S): (+); FS CDK1/CDK2 ([3]; Table S): > 47; selectivity for CDK2 over CDK4 compared with Comparator E (SKOV-3 (ATCC HTB-77); SKOV-3/OVISE fold-selectivity cellular assay data): increase in selectivity for CDK2 over CDK4; FS SKOV-3/OVISE increased over Comparator D, (+) sign (SKOV-3 (ATCC HTB-77); Table R): (+); FS SKOV-3/OVISE (SKOV-3 (ATCC HTB-77); Table R): 50; FS SKOV-3/OVISE increased over Comparator E, (+) sign (SKOV-3 (ATCC HTB-77); Table S): (+); FS SKOV-3/OVISE (SKOV-3 (ATCC HTB-77); Table S): 50; CDK2 cell potency compared with Comparator E ([4]; CDK2 OVISE cellular assay data): more potent CDK2 cell inhibitors compared to Comparator E; CDK2 OVISE IC50 fold change in potency versus Comparator D ([4]; Table R, in brackets after OVISE IC50): 127 fold; CDK2 OVISE IC50 fold change in potency versus Comparator E ([4]; Table S, in brackets after OVISE IC50): 5.7 fold
